Blank lines part the entries; values can stand above or below the compound they belong to.
Tests used:
[1] = tested on: MCF7; assay: Antiproliferative activity against human MCF7 cells
[2] = Downregulation of ERalpha expression in human MCF7 cells measured for 24 hrs by Western blot analysis; settings: MCF7, 24 h
[3] = tested on: MCF7; assay: Antiproliferative activity against human MCF-7 cells assessed as reduction in cell viability incubated for 48 hrs by MTT assay; settings: MCF7, 48 h
[4] = tested on: MDA-MB-231; assay: Antiproliferative activity against human MDA-MB-231 cells assessed as reduction in cell viability by MTT assay
[5] = tested on: MCF7; assay: Antiproliferative activity against human MCF7 cells assessed as reduction in cell viability by MTT assay
[6] = tested on: Ishikawa; assay: Antiproliferative activity against human Ishikawa cells assessed as reduction in cell viability incubated for 48 hrs by MTT assay
[7] = tested on: MCF7; assay: Cytotoxicity against human MCF7 cells assessed as reduction in cell viability incubated for 24 hrs by MTT assay; settings: MCF7, 24 h
[8] = biological target: T1, Aromatase (Homo sapiens, UniProt P11511); assay: Binding affinity to human placental aromatase in MCF7 cells assessed as inhibition constant
T1 sequence (P11511 whole entry): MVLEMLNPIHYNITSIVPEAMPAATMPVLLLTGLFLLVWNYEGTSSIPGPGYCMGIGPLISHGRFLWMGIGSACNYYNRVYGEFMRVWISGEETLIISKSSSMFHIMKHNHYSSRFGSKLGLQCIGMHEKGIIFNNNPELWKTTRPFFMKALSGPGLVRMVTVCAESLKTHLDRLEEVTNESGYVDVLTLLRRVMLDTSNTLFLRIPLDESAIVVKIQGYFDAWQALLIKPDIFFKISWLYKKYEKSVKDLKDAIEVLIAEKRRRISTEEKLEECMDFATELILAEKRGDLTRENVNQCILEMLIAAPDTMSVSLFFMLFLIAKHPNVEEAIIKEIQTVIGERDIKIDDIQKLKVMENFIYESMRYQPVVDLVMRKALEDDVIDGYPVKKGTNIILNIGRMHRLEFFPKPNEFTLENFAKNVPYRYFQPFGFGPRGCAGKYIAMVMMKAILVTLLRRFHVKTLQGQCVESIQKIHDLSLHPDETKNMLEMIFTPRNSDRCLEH

[9] = tested on: MCF7; assay: Cytotoxicity against human MCF7 cells
[10] = tested on: HEK-293T; assay: Cytotoxicity against HEK293T cells; settings: Homo sapiens

Structure (SMILES): COc1cc2c(cc1C(=O)c1ccc(OCCN3CCCCC3)cc1)C=C(c1ccccc1)C(C)(C)O2
IC50 [6]: 17700 nM

Structure (SMILES): CC1=C(c2cc(F)cc(F)c2)[C@@H](c2ccc(/C=C/CN3CC(CF)C3)cc2)Oc2cc(O)ccc21
IC50 [7]: 69.9 nM

Structure (SMILES): C[C@@H]1OC(Oc2cc(O)c3c(=O)c(O[C@H]4OC[C@@](O)(CO)[C@@H]4O)c(-c4ccc(O)cc4)oc3c2)[C@H](O)[C@H](O)[C@H]1O (stereo partly specified)
IC50 [7]: 48 nM

Structure (SMILES): COc1cc(O)c2c(c1)OC(c1ccc(O)cc1)CC2=O (single isomer, unassigned) [SAKURANETIN]
Ki [8]: 1200 nM

Structure (SMILES): CC1=C(c2ccc(O)cc2)[C@H](c2ccc(OCCN3CCCCC3)cc2)Oc2cc(O)ccc21 [ACOLBIFENE]
IC50 [1]: 0.32 nM

Structure (SMILES): COc1ccc(-c2cc(=O)c3c(O)cc(OC)cc3o2)cc1 [APIGENIN DIMETHYLETHER]
Ki [8]: 2100 nM

Structure (SMILES): CC1=C(c2cc(F)cc(F)c2)[C@H](c2ccc(/C=C/CN3CC(CF)C3)cc2)Oc2cc(O)ccc21 [BEXIRESTRANT]
IC50 [7]: 0.3 nM

Structure (SMILES): O=c1c(O)c(-c2ccc(O)c(O)c2)oc2cc(O)ccc12 [FISETIN]
IC50 [9]: 8500 nM

Structure (SMILES): COc1cc(O)c2c(=O)cc(-c3ccc(OC)c(-c4c(O)cc(O)c5c(=O)cc(-c6ccc(O)cc6)oc45)c3)oc2c1 [GINKGETIN]
IC50 [9]: 10000 nM

Structure (SMILES): O=C1C[C@@H](c2ccccc2)Oc2cc(O)cc(O)c21 [PINOCEMBRIN]
Ki [8]: 10800 nM

Structure (SMILES): O=c1c(O)c(-c2ccc(O)c(O)c2)oc2cc(O)cc(O)c12 [QUERCETIN]
IC50 [10]: 1200 nM

Structure (SMILES): C=C(C)[C@H]1Cc2c(ccc3c2O[C@@H]2COc4cc(OC)c(OC)cc4[C@@H]2C3=O)O1 [ROTENONE]
Ki [8]: 300 nM

Now from value to compound:

IC50 [1]: 0.58 nM
Structure (SMILES): CC1=C(c2ccc(OC(=O)C(C)(C)C)cc2)[C@H](c2ccc(OCCN3CCCCC3)cc2)Oc2cc(OC(=O)C(C)(C)C)ccc21

IC50 [2]: 1180 nM
Structure (SMILES): O=C(O)/C=C/c1ccc(Cc2c(-c3ccccc3)c(=O)oc3cc(O)ccc23)cc1

IC50 [2]: 3 nM
Structure (SMILES): Cc1cc(OC(F)(F)F)ccc1-c1c(Oc2ccc(/C=C/C(=O)O)cc2)c2ccc(O)cc2oc1=O

IC50 [2]: 810 nM
Structure (SMILES): Cc1cc(OC(F)(F)F)ccc1-c1c(Oc2ccc(/C=C/C(=O)O)cc2)c2ccccc2oc1=O

IC50 [3]: 2190 nM
Structure (SMILES): O=c1oc2cc(O)ccc2c(Oc2ccc(OCCN3CCCCC3)cc2)c1-c1ccc(F)cc1

IC50 [2]: 100 nM
Structure (SMILES): COc1ccc(C(=O)C2=C(Oc3ccc(/C=C/C(=O)O)cc3)c3ccc(O)cc3OC2)cc1

IC50 [4]: 12700 nM
IC50 [5]: 5700 nM
Structure (SMILES): COc1ccc(-c2c(C(=O)c3ccc(OCCN4CCCCC4)cc3)c3ccc(OC)cc3oc2=O)cc1

IC50 [1]: 2720 nM
Structure (SMILES): CN1CCN(c2ccc(-c3cc(=O)c4ccccc4o3)cc2)CC1
